Assay results taken from ChEMBL document CHEMBL4014263, “Diterpenoids and Lignans from Cephalotaxus fortunei” (J Nat Prod, 2017).

Legend:
HL-60 [1] = assay: Cytotoxicity against human HL60 cells assessed as growth inhibition at 10 uM by MTT assay relative to control; assay type: functional; conditions: read-out: GI
A549 [2] = assay: Cytotoxicity against human A549 cells assessed as growth inhibition at 10 uM by SRB assay relative to control; assay type: functional; conditions: read-out: GI
A549 [3] = assay: Cytotoxicity against human A549 cells by SRB assay; assay type: functional, cell-based
HL-60 [4] = assay: Cytotoxicity against human HL60 cells by MTT assay; assay type: functional, cell-based

Structure (SMILES)	inhibition of growth at 10 µM (HL-60 [1])	inhibition of growth at 10 µM (A549 [2])	IC50 (A549 [3])	IC50 (HL-60 [4])
Cc1cc(=O)cc2c3c1C[C@@H]1[C@H]4OC(=O)[C@](CC2)([C@H](C)[C@H]4O)[C@]31O	< 50%	< 50%	–	–
COc1ccc(C[C@@]2(O)C(=O)O[C@@H](c3ccc(OC)c(OC)c3)[C@@H]2CO)cc1OC	< 50%	< 50%	–	–
COc1cccc2c1C(=O)c1c(O)c3c(c(O)c1C2=O)C[C@@](O)(C(=O)CO)C[C@@H]3O[C@H]1C[C@H](N)[C@H](O)[C@H](C)O1 [DOXORUBICIN]	–	–	124 nM	31 nM
Cc1cc(=O)cc2c3c1[C@@H](O)[C@@H]1[C@H]4OC(=O)[C@](CC2)([C@H](C)[C@H]4O)[C@H]31	< 50%	< 50%	–	–
C[C@@H]1[C@@H](O)[C@@H]2OC(=O)[C@]13CC[C@@H]1C[C@@H](O)C[C@H](C)C4=C1[C@@H]3[C@@H]2C4=O	< 50%	< 50%	–	–
CC(CO)c1cc2c(cc1O)[C@@]1(C)CC[C@H](O)C(C)(C)[C@@H]1CC2=O (stereo not given in full)	< 50%	< 50%	–	–
COc1cc([C@@H]2Oc3cc(OC)c(OC)cc3[C@H]2CO)ccc1O	< 50%	< 50%	–	–
C[C@@H]1[C@@H](O)[C@@H]2OC(=O)[C@]13CC[C@@H]1C[C@H](O)C[C@H](C)C4=C1[C@@H]3[C@@H]2C4=O	< 50%	< 50%	–	–
COc1cc(C[C@@]2(O)C(=O)O[C@@H](c3ccc(O)c(OC)c3)[C@@H]2CO)ccc1O	< 50%	< 50%	–	–
Cc1cc(=O)cc2c3c1C(=O)[C@@H]1[C@H]4OC(=O)[C@](CC2)([C@H](C)[C@H]4O)[C@H]31	–	–	1130 nM	770 nM
